Assay [1] addresses T1, RORγ-LBD (Homo sapiens, UniProt P51449).
T1 construct: made in house; host or cells: SF9 cells (baculovirus)
T1 sequence (P51449 269-508 limits assumed): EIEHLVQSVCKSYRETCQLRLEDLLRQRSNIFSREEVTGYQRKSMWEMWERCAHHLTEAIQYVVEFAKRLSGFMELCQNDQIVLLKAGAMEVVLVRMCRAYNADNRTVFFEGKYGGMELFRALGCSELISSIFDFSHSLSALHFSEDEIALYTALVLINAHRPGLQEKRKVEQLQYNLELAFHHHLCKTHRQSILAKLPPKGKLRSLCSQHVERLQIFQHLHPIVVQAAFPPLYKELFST
Briefly: RORγ-Ligand Binding Domain (LBD) TR-FRET Assay.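 As to TR-FRET Assay Max Response: 665/615 nm ratio relative to signal without ursolic acid or compound set at 100.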 Format: biochemical. The method in brief:
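This TR-FRET coactivator assay pairs baculovirus-expressed His-RORγ-LBD (~3 nM final) with biotin-SRC1 LXXLL peptide at 200 nM final in pH 7.0 Tris/KCl/EDTA/DTT/BSA buffer.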

Assay [2] addresses T2, Gal4-RORγ-LBD (Homo sapiens, UniProt P51449).
T2 construct: expressed in transfected cells; host or cells: HEK-293 cells (pcDNA3.1neo plasmid)
T2 sequence (P51449 269-508 limits assumed): T1 sequence (P51449 269-508 limits assumed)
Nature of the assay: Gal4-RORγ Luciferase Reporter Assay in HEK-293T Cells. Format: cell-based. The note with it: HEK-293 cells. The method in brief: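 Luminescence read-out (One-Glo, 10 min RT) after overnight compound exposure at 37 °C in HEK-293 cells carrying Gal4-RORγ-LBD plus a Gal4-luciferase reporter, in the presence of 2 μM ursolic acid. Max Response is the upper plateau from a 4-parameter logistic fit, normalized to untreated signal = 100.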

The mark [3] stands for this setting: luciferase reporter, with 2 μM ursolic acid.

The structures appear in SMILES notation. pEC50: −log10 of the molar value. A value given as a limit tells only on which side of the number the result lay.

With `CC(C)Oc1cccc(-c2ccc3c(c2)N(S(=O)(=O)c2cccc(C(F)(F)F)c2)C[C@H](CCC(=O)O)O3)c1` [Compound 2AV, (S)-3-(6-(3-isopropoxyphenyl)-4-((3-(trifluoromethyl)phenyl)-sulfonyl)-3,4-dihydro-2H-benzo[b][1,4]oxazin-2-yl)propanoic acid], in assay [1], the negative-log EC50 (pEC50) is more than 6.30 and the “TR-FRET Assay Max Response” value was “**** (The symbol “****” indicates a value greater than 200)”. Moreover, in assay [2] (setting [3]), the pEC50 is 5.30 to 6.30 and the “Gal4-RORγ Assay Max Response” value is given as “* (The symbol “*” indicates a value in the range of 25 to 90)”.

As for `O=C(O)CC[C@H]1CN(S(=O)(=O)c2cccc(C(F)(F)F)c2)c2cc(-c3ccc(F)c(Cl)c3)ccc2O1` [Compound 2J, (S)-3-(6-(3-chloro-4-fluorophenyl)-4-((3-(trifluoromethyl)phenyl)-sulfonyl)-3,4-dihydro-2H-benzo[b][1,4]oxazin-2-yl)propanoic acid], in assay [1], the negative-log EC50 (pEC50) is more than 6.30 and the “TR-FRET Assay Max Response” value is listed as “** (The symbol “**” indicates a value in the range of greater than 90 to 150)”. In assay [2] (setting [3]), the pEC50 was 5.30 to 6.30 and the “Gal4-RORγ Assay Max Response” value is listed as “* (The symbol “*” indicates a value in the range of 25 to 90)”.

For the molecule `CN(C)c1cccc(-c2ccc3c(c2)N(S(=O)(=O)c2cccc(C(F)(F)F)c2)C[C@H](CCc2n[nH]c(=O)o2)O3)n1` [Compound 28B, (S)-5-(2-(6-(6-(dimethylamino)-pyridin-2-yl)-4-((3-(trifluoro-methyl)phenyl)sulfonyl)-3,4-dihydro-2H-benzo[b][1,4]oxazin-2-yl)ethyl)-1,3,4-oxadiazol-2(3H)-one], in assay [1], the pEC50 was more than 6.30 and the “TR-FRET Assay Max Response” value is recorded as “**** (The symbol “****” indicates a value greater than 200)”. Besides, in assay [2] (setting [3]), the pEC50 is more than 6.30 and the “Gal4-RORγ Assay Max Response” value was “** (The symbol “**” indicates a value in the range of greater than 90 to 150)”.

Consider `CC(=O)NC(C)(C)C[C@H]1CN(S(=O)(=O)c2cccc(C(F)(F)F)c2)c2cc(-c3cc(F)ccc3F)ccc2O1` [Compound 30CV, (S)-N-(1-(6-(2,5-difluoro-phenyl)-4-((3-(trifluoromethyl)-phenyl)sulfonyl)-3,4-dihydro-2H-benzo[b][1,4]oxazin-2-yl)-2-methylpropan-2-yl)acetamide], for which, in assay [1], the pEC50 was more than 6.30 and the “TR-FRET Assay Max Response” value is given as “*** (The symbol “***” indicates a value in the range of greater than 150 to 200)”. Also, in assay [2] (2 μM ursolic acid), the negative-log EC50 (pEC50) is more than 6.30 and the “Gal4-RORγ Assay Max Response” value is reported as “* (The symbol “*” indicates a value in the range of 25 to 90)”.

For the molecule `O=S(=O)(c1cccc(C(F)(F)F)c1)N1C[C@H](CCCO)Oc2ccc(-c3ccc(F)c(F)c3)cc21` [Compound 34B, (S)-3-(6-(3,4-difluorophenyl)-4-((3-(trifluoromethyl)phenyl)-sulfonyl)-3,4-dihydro-2H-benzo[b][1,4]oxazin-2-yl)propan-1-ol], in assay [1], the pEC50 was more than 6.30 and the “TR-FRET Assay Max Response” value is listed as “**** (The symbol “****” indicates a value greater than 200)”. Besides, in assay [2] (setting [3]), the negative logarithm of the EC50 (pEC50) is more than 6.30 and the “Gal4-RORγ Assay Max Response” value is on record as “* (The symbol “*” indicates a value in the range of 25 to 90)”.

Turning to `CC(C)(F)C(=O)NC[C@H]1CN(S(=O)(=O)c2cccc(C(F)(F)F)c2)c2cc(-c3cccc(F)c3Cl)ccc2O1` [Compound 30BZ, (S)-N-((6-(2-chloro-3-fluoro-phenyl)-4-((3-(trifluoromethyl)-phenyl)sulfonyl)-3,4-dihydro-2H-benzo[b][1,4]oxazin-2-yl)methyl)-2-fluoro-2-methylpropanamide], in assay [1], the pEC50 is more than 6.30 and the “TR-FRET Assay Max Response” value was “**** (The symbol “****” indicates a value greater than 200)”. Moreover, in assay [2] (2 μM ursolic acid), the pEC50 is more than 6.30 and the “Gal4-RORγ Assay Max Response” value is “* (The symbol “*” indicates a value in the range of 25 to 90)”.

Regarding `CCc1cccc(-c2ccc3c(c2)N(S(=O)(=O)c2cccc(C(F)(F)F)c2)C[C@H](CCC(=O)O)O3)c1` [Compound 4AH, (S)-3-(6-(3-ethylphenyl)-4-((3-(trifluoromethyl)phenyl)-sulfonyl)-3,4-dihydro-2H-benzo[b][1,4]oxazin-2-yl)propanoic acid], in assay [1], the pEC50 is more than 6.30 and the “TR-FRET Assay Max Response” value is on record as “**** (The symbol “****” indicates a value greater than 200)”. For the same molecule, in assay [2] (setting [3]), the negative-log EC50 (pEC50) is more than 6.30 and the “Gal4-RORγ Assay Max Response” value is listed as “** (The symbol “**” indicates a value in the range of greater than 90 to 150)”.

Take `CCOc1ncc(C(F)(F)F)cc1S(=O)(=O)N1C[C@H](CCC(=O)O)Oc2ccc(-c3cccc(Cl)c3)cc21` [Compound 6D, (S)-3-(6-(3-chlorophenyl)-4-((2-ethoxy-5-(trifluoromethyl)-pyridin-3-yl)sulfonyl)-3,4-dihydro-2H-benzo[b][1,4]-oxazin-2-yl)propanoic acid]: in assay [1], the pEC50 was more than 6.30 and the “TR-FRET Assay Max Response” value is recorded as “**** (The symbol “****” indicates a value greater than 200)”. Also, in assay [2] (setting [3]), the pEC50 was 5.30 to 6.30 and the “Gal4-RORγ Assay Max Response” value is recorded as “** (The symbol “**” indicates a value in the range of greater than 90 to 150)”.

On to `Cc1cc(F)cc(-c2ccc3c(c2)N(S(=O)(=O)c2cccc(C(F)(F)F)c2)C[C@H](CCC(=O)O)O3)c1` [Compound 2BN, (S)-3-(6-(3-fluoro-5-methyl-phenyl)-4-((3-(trifluoromethyl)-phenyl)sulfonyl)-3,4-dihydro-2H-benzo[b][1,4]oxazin-2-yl)propanoic acid], for which, in assay [1], the pEC50 is more than 6.30 and the “TR-FRET Assay Max Response” value is “*** (The symbol “***” indicates a value in the range of greater than 150 to 200)”. Moreover, in assay [2] (setting [3]), the negative-log EC50 (pEC50) was more than 6.30 and the “Gal4-RORγ Assay Max Response” value is given as “** (The symbol “**” indicates a value in the range of greater than 90 to 150)”.

Turning to `CC(C)(C[C@H]1CN(S(=O)(=O)c2cccc(C(F)(F)F)c2)c2cc(-c3cc(Cl)cc(OC(F)F)c3)ccc2O1)C(=O)O` [Compound 32R, (S)-3-(6-(3-chloro-5-(difluoro-methoxy)phenyl)-4-((3-(trifluoro-methyl)phenyl)sulfonyl)-3,4-dihydro-2H-benzo[b][1,4]oxazin-2-yl)-2,2-dimethylpropanoic acid], in assay [1], the pEC50 was more than 6.30 and the “TR-FRET Assay Max Response” value was “*** (The symbol “***” indicates a value in the range of greater than 150 to 200)”. In assay [2] (setting [3]), the pEC50 is more than 6.30 and the “Gal4-RORγ Assay Max Response” value is given as “** (The symbol “**” indicates a value in the range of greater than 90 to 150)”.

`COc1cc(S(=O)(=O)N2C[C@H](CNC(=O)[C@@](C)(O)C(F)(F)F)Oc3ccc(-c4cc(F)ccc4F)cc32)ccc1F` [Compound 30X, (R)-N-(((S)-6-(2,5-difluorophenyl)-4-((4-fluoro-3-methoxyphenyl)sulfonyl)-3,4-dihydro-2H-benzo[b][1,4]oxazin-2-yl)methyl)-3,3,3-trifluoro-2-hydroxy-2-methylpropanamide]: in assay [1], the negative logarithm of the EC50 (pEC50) is more than 6.30 and the “TR-FRET Assay Max Response” value is “*** (The symbol “***” indicates a value in the range of greater than 150 to 200)”. In addition, in assay [2] (setting [3]), the negative logarithm of the EC50 (pEC50) is more than 6.30 and the “Gal4-RORγ Assay Max Response” value is given as “* (The symbol “*” indicates a value in the range of 25 to 90)”.

As to `O=S(=O)(c1cccc(C(F)(F)F)c1)N1C[C@H](CCCO)Oc2ccc(-c3ccc(F)cc3F)cc21` [Compound 34A, (S)-3-(6-(2,4-difluorophenyl)-4-((3-(trifluoromethyl)phenyl)-sulfonyl)-3,4-dihydro-2H-benzo[b][1,4]oxazin-2-yl)propan-1-ol], in assay [1], the pEC50 was more than 6.30 and the “TR-FRET Assay Max Response” value is reported as “**** (The symbol “****” indicates a value greater than 200)”. In assay [2] (setting [3]), the pEC50 is more than 6.30 and the “Gal4-RORγ Assay Max Response” value is recorded as “* (The symbol “*” indicates a value in the range of 25 to 90)”.

`COc1cc(OC)cc(-c2ccc3c(c2)N(S(=O)(=O)c2cccc(C(F)(F)F)c2)C[C@H](CC(C)(C)C(=O)O)O3)c1` [Compound 32Q, (S)-3-(6-(3,5-dimethoxyphenyl)-4-((3-(trifluoromethyl)phenyl)-sulfonyl)-3,4-dihydro-2H-benzo[b][1,4]oxazin-2-yl)-2,2-dimethylpropanoic acid]: in assay [1], the negative logarithm of the EC50 (pEC50) is more than 6.30 and the “TR-FRET Assay Max Response” value is “**** (The symbol “****” indicates a value greater than 200)”. Moreover, in assay [2] (setting [3]), the pEC50 is more than 6.30 and the “Gal4-RORγ Assay Max Response” value was “** (The symbol “**” indicates a value in the range of greater than 90 to 150)”.

`O=C(O)CC[C@H]1CN(S(=O)(=O)c2cccc(C(F)(F)F)c2)c2cc(-c3cccc(Cl)c3F)ccc2O1` [Compound 2R, (S)-3-(6-(3-chloro-2-fluorophenyl)-4-((3-(trifluoromethyl)phenyl)-sulfonyl)-3,4-dihydro-2H-benzo[b][1,4]oxazin-2-yl)propanoic acid]: in assay [1], the pEC50 was more than 6.30 and the “TR-FRET Assay Max Response” value is reported as “**** (The symbol “****” indicates a value greater than 200)”. Further, in assay [2] (setting [3]), the negative logarithm of the EC50 (pEC50) is more than 6.30 and the “Gal4-RORγ Assay Max Response” value was “*** (The symbol “***” indicates a value in the range of greater than 150 to 200)”.
